Tests used:
[1] = Photostability, percentage remaining undegraded under illumination or in the dark; conditions: for Photostability 4 hours: percentage remaining undegraded after 4 hours illumination; for Photostability 24 hours: percentage remaining undegraded after 24 hours illumination; for Photostability Dark (24 h): percentage remaining undegraded in the dark
Rabbit skeletal myosin = assay: Skeletal muscle myosin II actin-activated ATPase assay; format: biochemical; conditions: 20 nM skeletal muscle myosin II; read-out: SKMMII KI
Procedure, shortened: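 Inhibitory constants come from a quadratic one-site fit of 16-point, triplicate dose-response data, highest compound concentration 50 uM. Rates are slopes of NADH fluorescence decline over 30 min, coupling ATP turnover of 20 nM rabbit skeletal myosin II with 10 μM actin and 1 mM ATP via PK/LDH, pH 7.0, 25 °C.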

Bovine cardiac myosin = Bovine cardiac myosin (Bos taurus (Bovine), UniProt Q9BE39); assay: Cardiac muscle myosin II actin-activated ATPase assay (NADH-coupled); format: biochemical; parameters: key to Ratio CMMII:NMII Ki/EC50: NMII-sel: no Ki value for cardiac myosin II could be determined; the compounds had no detectable inhibitory properties versus the cardiac myosin II; conditions: for Ki: 300 nM cardiac myosin, 10 μM actin, 25° C., read-out: CMMII KI; for Ratio CMMII:NMII Ki/EC50: cardiac myosin II Ki over nonmuscle myosin II EC50
Bovine cardiac myosin, sequence (Q9BE39 whole entry): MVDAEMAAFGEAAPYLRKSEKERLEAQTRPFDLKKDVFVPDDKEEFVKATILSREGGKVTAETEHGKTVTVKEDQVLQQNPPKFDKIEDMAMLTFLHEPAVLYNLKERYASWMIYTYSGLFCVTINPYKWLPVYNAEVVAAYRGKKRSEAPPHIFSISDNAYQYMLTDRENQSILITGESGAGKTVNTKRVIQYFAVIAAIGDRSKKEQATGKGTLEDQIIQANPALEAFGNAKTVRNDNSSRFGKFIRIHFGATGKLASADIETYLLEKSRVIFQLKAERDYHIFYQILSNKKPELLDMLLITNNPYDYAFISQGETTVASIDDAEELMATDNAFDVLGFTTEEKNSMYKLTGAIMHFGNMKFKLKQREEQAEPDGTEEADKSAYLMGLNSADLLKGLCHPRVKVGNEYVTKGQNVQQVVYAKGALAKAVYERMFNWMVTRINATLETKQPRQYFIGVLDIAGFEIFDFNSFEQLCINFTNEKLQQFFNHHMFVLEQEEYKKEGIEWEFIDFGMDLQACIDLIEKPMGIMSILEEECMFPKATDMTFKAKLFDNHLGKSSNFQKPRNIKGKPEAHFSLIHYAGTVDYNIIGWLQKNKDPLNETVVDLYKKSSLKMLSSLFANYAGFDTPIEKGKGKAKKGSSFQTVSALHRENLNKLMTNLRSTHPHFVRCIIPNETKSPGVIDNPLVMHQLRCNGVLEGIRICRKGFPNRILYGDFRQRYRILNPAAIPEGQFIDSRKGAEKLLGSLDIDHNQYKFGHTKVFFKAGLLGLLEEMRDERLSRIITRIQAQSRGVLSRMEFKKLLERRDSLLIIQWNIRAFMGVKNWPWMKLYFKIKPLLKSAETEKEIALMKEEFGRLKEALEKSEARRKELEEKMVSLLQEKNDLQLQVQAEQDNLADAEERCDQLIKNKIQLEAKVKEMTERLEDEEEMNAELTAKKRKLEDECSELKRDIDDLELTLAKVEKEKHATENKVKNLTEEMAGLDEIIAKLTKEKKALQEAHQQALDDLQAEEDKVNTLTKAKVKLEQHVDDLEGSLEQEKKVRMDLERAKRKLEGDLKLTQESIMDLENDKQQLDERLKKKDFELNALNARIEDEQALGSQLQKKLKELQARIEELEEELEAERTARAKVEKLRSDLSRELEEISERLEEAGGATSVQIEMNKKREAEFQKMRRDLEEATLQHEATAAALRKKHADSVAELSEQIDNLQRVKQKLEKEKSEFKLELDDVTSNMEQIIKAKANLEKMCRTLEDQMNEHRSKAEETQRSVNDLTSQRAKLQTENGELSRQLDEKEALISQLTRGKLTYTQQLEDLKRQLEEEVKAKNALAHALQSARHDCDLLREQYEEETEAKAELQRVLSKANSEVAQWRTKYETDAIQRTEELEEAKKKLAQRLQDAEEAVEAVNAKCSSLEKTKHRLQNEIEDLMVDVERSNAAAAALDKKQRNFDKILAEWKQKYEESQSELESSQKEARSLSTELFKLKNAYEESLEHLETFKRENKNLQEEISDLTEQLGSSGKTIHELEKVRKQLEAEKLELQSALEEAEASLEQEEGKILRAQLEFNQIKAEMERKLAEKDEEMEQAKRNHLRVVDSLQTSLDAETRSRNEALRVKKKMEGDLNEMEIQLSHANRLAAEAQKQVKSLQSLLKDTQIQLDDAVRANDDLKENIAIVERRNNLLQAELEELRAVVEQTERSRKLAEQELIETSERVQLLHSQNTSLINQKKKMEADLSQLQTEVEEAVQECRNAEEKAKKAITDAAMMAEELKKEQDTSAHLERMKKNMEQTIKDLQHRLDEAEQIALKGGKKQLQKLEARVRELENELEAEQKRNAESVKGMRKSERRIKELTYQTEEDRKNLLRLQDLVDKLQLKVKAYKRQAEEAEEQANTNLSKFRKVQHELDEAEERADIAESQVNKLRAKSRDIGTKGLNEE
Bovine cardiac myosin, sequence (P85100 whole entry partner): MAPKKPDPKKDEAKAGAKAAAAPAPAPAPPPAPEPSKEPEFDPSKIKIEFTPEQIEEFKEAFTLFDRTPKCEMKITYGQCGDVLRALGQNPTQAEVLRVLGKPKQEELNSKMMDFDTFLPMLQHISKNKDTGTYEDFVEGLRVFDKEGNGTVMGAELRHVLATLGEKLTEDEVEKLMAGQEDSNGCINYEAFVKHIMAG
Bovine cardiac myosin, sequence (Q3SZE5 whole entry partner): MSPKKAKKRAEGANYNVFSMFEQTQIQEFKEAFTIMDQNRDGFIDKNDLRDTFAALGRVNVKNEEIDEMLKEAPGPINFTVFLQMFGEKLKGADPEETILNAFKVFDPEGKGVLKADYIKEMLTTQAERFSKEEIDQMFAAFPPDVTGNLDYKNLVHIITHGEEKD
Procedure, shortened: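 Inhibitory constants came from a quadratic one-to-one binding fit of 16-point dose-responses (highest final 50 uM, triplicate). Rates were NADH-calibrated fluorescence slopes over 30 min at 25° C, with 300 nM bovine cardiac myosin, 10 μM actin and 1 mM ATP coupled through PK/LDH in pH 7.0 MOPS buffer.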

Cc1cc2c(cc1C)C(=O)[C@]1(O)CCN(c3ccc4c(c3)NCCC4)C1=N2 [BPN-0028925]
Photostability 4 hours [1]: 85.9% | Photostability 24 hours [1]: 24.7% | Photostability Dark (24 h) [1]: 93.7% | Ki (Rabbit skeletal myosin): 0.7 µM | Ki (Bovine cardiac myosin): 5.8 µM | Ratio CMMII:NMII Ki/EC50 (Bovine cardiac myosin): 7.3

Cc1cc2c(cc1C(F)(F)F)N=C1N(c3ccc(Cl)cc3)CC[C@@]1(O)C2=O [BPN-0027080]
Photostability 4 hours [1]: 98.1% | Photostability 24 hours [1]: 88.1% | Photostability Dark (24 h) [1]: >99% | Ki (Rabbit skeletal myosin): 4.8 µM | Ratio CMMII:NMII Ki/EC50 (Bovine cardiac myosin): NMII-sel

Cc1cc2c(cc1C)C(=O)[C@]1(O)CCN(c3cccc(Br)c3)C1=N2 [BPN-0026660]
Photostability 4 hours [1]: 87.4% | Photostability 24 hours [1]: 7.6% | Photostability Dark (24 h) [1]: 93.8% | Ki (Rabbit skeletal myosin): 33 µM | Ratio CMMII:NMII Ki/EC50 (Bovine cardiac myosin): NMII-sel

O=C1c2cc(C(F)(F)F)ccc2N=C2N(c3ccccc3)CC[C@@]12O [BPN-0025110]
Photostability 4 hours [1]: 6.6% | Photostability 24 hours [1]: 2.6% | Photostability Dark (24 h) [1]: >99% | Ki (Rabbit skeletal myosin): 8 µM | Ki (Bovine cardiac myosin): 22 µM | Ratio CMMII:NMII Ki/EC50 (Bovine cardiac myosin): 6.9

Cc1cc2c(cc1C)C(=O)[C@]1(O)CCN(c3cnc4c(c3)NCCO4)C1=N2 [BPN-0028734]
Photostability 4 hours [1]: 76% | Photostability 24 hours [1]: <1% | Photostability Dark (24 h) [1]: 96.3% | Ki (Rabbit skeletal myosin): 2.9 µM | Ki (Bovine cardiac myosin): 15 µM | Ratio CMMII:NMII Ki/EC50 (Bovine cardiac myosin): 5.0

Cc1sc2c(c1C)C(=O)[C@]1(O)CCN(c3ccc(I)cc3)C1=N2 [BPN-0027081]
Photostability 4 hours [1]: 97.0% | Photostability 24 hours [1]: 46.3% | Photostability Dark (24 h) [1]: 96.9% | Ki (Rabbit skeletal myosin): 0.29 µM | Ki (Bovine cardiac myosin): 9 µM | Ratio CMMII:NMII Ki/EC50 (Bovine cardiac myosin): 8.2

Cc1sc2c(c1C)C(=O)[C@]1(O)CCN(c3ccc4ncccc4c3)C1=N2 [BPN-0027376]
Photostability 4 hours [1]: 90.4% | Photostability 24 hours [1]: 2.8% | Photostability Dark (24 h) [1]: 97.0% | Ki (Rabbit skeletal myosin): 6.7 µM | Ki (Bovine cardiac myosin): 46 µM | Ratio CMMII:NMII Ki/EC50 (Bovine cardiac myosin): 7.8

Cc1cc2c(cc1F)C(=O)[C@]1(O)CCN(c3ccc4ccoc4c3)C1=N2 [BPN-0026619]
Photostability 4 hours [1]: 77.4% | Photostability 24 hours [1]: <1% | Photostability Dark (24 h) [1]: 91.0% | Ki (Rabbit skeletal myosin): 2.5 µM | Ki (Bovine cardiac myosin): 36 µM | Ratio CMMII:NMII Ki/EC50 (Bovine cardiac myosin): 22.5

Cc1cc2c(cc1C)C(=O)[C@]1(O)CCN(c3ccc4ccoc4c3)C1=N2 [BPN-0026664]
Photostability 4 hours [1]: 30.3% | Photostability 24 hours [1]: <1% | Photostability Dark (24 h) [1]: 97.7% | Ki (Rabbit skeletal myosin): 1.5 µM | Ki (Bovine cardiac myosin): 29 µM | Ratio CMMII:NMII Ki/EC50 (Bovine cardiac myosin): 33.3

Cc1ccc2c(c1)C(=O)[C@]1(O)CCN(c3ccc(C)c(Cl)c3)C1=N2 [BPN-0025254]
Photostability 4 hours [1]: 92.5% | Photostability 24 hours [1]: 39.4% | Photostability Dark (24 h) [1]: >99% | Ki (Rabbit skeletal myosin): 7.7 µM | Ratio CMMII:NMII Ki/EC50 (Bovine cardiac myosin): NMII-sel

O=C1c2cc(C(F)(F)F)ccc2N=C2N(c3ccc4ccoc4c3)CC[C@@]12O [BPN-0026495]
Photostability 4 hours [1]: 80.9% | Photostability 24 hours [1]: 15.9% | Photostability Dark (24 h) [1]: 93.4% | Ki (Rabbit skeletal myosin): 20 µM | Ratio CMMII:NMII Ki/EC50 (Bovine cardiac myosin): NMII-sel

Cn1ncc2c1N=C1N(c3ccccc3)CC[C@@]1(O)C2=O [BPN-0027159]
Photostability 4 hours [1]: 89.9% | Photostability 24 hours [1]: 22.5% | Photostability Dark (24 h) [1]: >99% | Ki (Rabbit skeletal myosin): 330 µM | Ratio CMMII:NMII Ki/EC50 (Bovine cardiac myosin): NMII-sel

O=C1c2cc(C(F)(F)F)ccc2N=C2N(c3ccc4ncccc4c3)CC[C@@]12O [BPN-0027218]
Photostability 4 hours [1]: 90.0% | Photostability 24 hours [1]: 4.4% | Photostability Dark (24 h) [1]: 95.5% | Ki (Rabbit skeletal myosin): 40 µM | Ratio CMMII:NMII Ki/EC50 (Bovine cardiac myosin): NMII-sel

COc1cc(N2CC[C@@]3(O)C(=O)c4cc(C)c(C)cc4N=C23)ccn1 [BPN-0026709]
Photostability 4 hours [1]: 98.7% | Photostability 24 hours [1]: 93.0% | Photostability Dark (24 h) [1]: 98.2% | Ki (Rabbit skeletal myosin): 1.3 µM | Ki (Bovine cardiac myosin): 30.6 µM | Ratio CMMII:NMII Ki/EC50 (Bovine cardiac myosin): 25.5

Cc1nc2cc(N3CC[C@@]4(O)C(=O)c5cc(C)c(C)cc5N=C34)ccc2o1 [BPN-0027118]
Photostability 4 hours [1]: 68.6% | Photostability 24 hours [1]: 9.2% | Photostability Dark (24 h) [1]: 94.4% | Ki (Rabbit skeletal myosin): 0.68 µM | Ki (Bovine cardiac myosin): 5.5 µM | Ratio CMMII:NMII Ki/EC50 (Bovine cardiac myosin): 4.6

Cn1cc(N2CC[C@@]3(O)C(=O)c4cc(C(F)(F)F)ccc4N=C23)cn1 [BPN-0026413]
Photostability 4 hours [1]: 94.3% | Photostability 24 hours [1]: 82.2% | Photostability Dark (24 h) [1]: 97.3% | Ki (Rabbit skeletal myosin): 33 µM | Ki (Bovine cardiac myosin): 110 µM | Ratio CMMII:NMII Ki/EC50 (Bovine cardiac myosin): 3.1

Cc1cc2c(cc1F)C(=O)[C@]1(O)CCN(c3ccc4ncsc4c3)C1=N2 [BPN-0027196]
Photostability 4 hours [1]: 94.9% | Photostability 24 hours [1]: 7.1% | Photostability Dark (24 h) [1]: >99% | Ki (Rabbit skeletal myosin): 12 µM | Ratio CMMII:NMII Ki/EC50 (Bovine cardiac myosin): NMII-sel

Cc1cc2c(cc1Cl)C(=O)[C@]1(O)CCN(c3ccccc3)C1=N2 [BPN-0026659]
Photostability 4 hours [1]: 72.1% | Photostability 24 hours [1]: 17.9% | Photostability Dark (24 h) [1]: 91.1% | Ki (Rabbit skeletal myosin): 0.93 µM | Ki (Bovine cardiac myosin): 9 µM | Ratio CMMII:NMII Ki/EC50 (Bovine cardiac myosin): 3.5

Cc1nc2cc(N3CC[C@@]4(O)C(=O)c5cc(F)c(C)cc5N=C34)ccc2o1 [BPN-0027198]
Photostability 4 hours [1]: 89.9% | Photostability 24 hours [1]: 21.4% | Photostability Dark (24 h) [1]: >99% | Ki (Rabbit skeletal myosin): 0.88 µM | Ki (Bovine cardiac myosin): 10.5 µM | Ratio CMMII:NMII Ki/EC50 (Bovine cardiac myosin): 3.6

CCc1cc2c(s1)N=C1N(c3ccc4ncccc4c3)CC[C@@]1(O)C2=O [BPN-0027217]
Photostability 4 hours [1]: 97.9% | Photostability 24 hours [1]: 76.0% | Photostability Dark (24 h) [1]: >99% | Ki (Rabbit skeletal myosin): 21 µM | Ki (Bovine cardiac myosin): 160 µM | Ratio CMMII:NMII Ki/EC50 (Bovine cardiac myosin): 20.5

Cc1cc2c(s1)N=C1N(c3ccc(C#N)c(C)c3)CC[C@@]1(O)C2=O [BPN-0026576]
Photostability 4 hours [1]: 98.6% | Photostability 24 hours [1]: >99% | Photostability Dark (24 h) [1]: >99% | Ki (Rabbit skeletal myosin): 4.6 µM | Ki (Bovine cardiac myosin): 18 µM | Ratio CMMII:NMII Ki/EC50 (Bovine cardiac myosin): 3.3

Cc1ccc2c(c1)C(=O)[C@]1(O)CCN(c3ccc4ncccc4c3)C1=N2 [BPN-0027040]
Photostability 4 hours [1]: 94.8% | Photostability 24 hours [1]: 21.4% | Photostability Dark (24 h) [1]: 95.7% | Ki (Rabbit skeletal myosin): 2.6 µM | Ki (Bovine cardiac myosin): 37 µM | Ratio CMMII:NMII Ki/EC50 (Bovine cardiac myosin): 30.8

COc1cc(N2CC[C@@]3(O)C(=O)c4cc(C)c(C(F)(F)F)cc4N=C23)ccn1 [BPN-0027037]
Photostability 4 hours [1]: >99% | Photostability 24 hours [1]: >99% | Photostability Dark (24 h) [1]: >99% | Ki (Rabbit skeletal myosin): 18 µM | Ratio CMMII:NMII Ki/EC50 (Bovine cardiac myosin): NMII-sel

Cc1sc2c(c1C)C(=O)[C@]1(O)CCN(c3ccc(C#N)c(Cl)c3)C1=N2 [BPN-0027238]
Photostability 4 hours [1]: >99% | Photostability 24 hours [1]: >99% | Photostability Dark (24 h) [1]: >99% | Ki (Rabbit skeletal myosin): 3.7 µM | Ratio CMMII:NMII Ki/EC50 (Bovine cardiac myosin): NMII-sel

Cc1ncc(N2CC[C@@]3(O)C(=O)c4cc(C)c(C)cc4N=C23)s1 [BPN-0026693]
Photostability 4 hours [1]: 34.1% | Photostability 24 hours [1]: 1.7% | Photostability Dark (24 h) [1]: >99% | Ki (Rabbit skeletal myosin): 0.27 µM | Ki (Bovine cardiac myosin): 3.5 µM | Ratio CMMII:NMII Ki/EC50 (Bovine cardiac myosin): 6.0

O=C1c2cc(Cl)ccc2NC2N(c3ccc4ccoc4c3)CC[C@@]12O (stereo partly drawn) [BPN-0026401]
Photostability 4 hours [1]: 81.2% | Photostability 24 hours [1]: 9.6% | Photostability Dark (24 h) [1]: 97.7% | Ki (Rabbit skeletal myosin): 3.3 µM | Ki (Bovine cardiac myosin): 50 µM | Ratio CMMII:NMII Ki/EC50 (Bovine cardiac myosin): 16.7

— patent US20250163056A1, “NONMUSCLE MYOSIN II INHIBITORS” (The University of Florida Research Foundation, Inc., priority 2018, published 2025)
